According to US12410148B2, “Antibody drug conjugates” (Pharma Mar, S.A., priority 2013, dated 2025):
≈ marks a conversion by molar mass, not a printed value. Where “and” joins values, the source holds several entries; their conditions need not be identical. Identical values can stand only once. Like-named read-outs stand apart in the source and are kept apart here.

Columns and labels:
[1] = tested on: BT-474, HCC-1954, SK-BR-3, MDA-MB-231, MCF-7 and SK-OV-3 cells; experiment: In vitro cytotoxicity, whole cell panel of Bioactivity Example 1; type: cell-based; details: Homo sapiens
Description: (§1) All tumor cell lines used in this study were obtained from the American Type Culture Collection (ATCC), unless otherwise indicated; BT-474 (ATCC HTB-20, Breast Ductal Carcinoma), SK-BR-3 (ATCC HTB-30, Breast Adenocarcinoma) and HCC-1954 (ATCC CRL-2338, Breast Ductal Carcinoma), all HER2+; MDA-MB-231 (ATCC HTB-26, Breast Adenocarcinoma) and MCF-7 (ATCC HTB-22 Breast Adenocarcinoma, pleural effusion), all HER2-; SK-OV-3 (ATCC HTB-77, Ovary Adenocarcinoma), HER2+; NB-4 (Acute Promyelocytic Leukemia, APL, CD13+, M. Lanotte et al. (1991) NB4, a maturation inducible cell line with t(15;17) marker isolated from a human acute promyelocytic leukemia (M3). Blood 77, 1080-1086), (CD13+) and U937 (ATCC CRL-1 593.2, Histiocytic Lymphoma, CD13+ and CD4+); Raji (ATCC CCL-86, Burkitt's Lymphoma) (CD13−, CD20+, CD5−, and CD4−); RPMI-8226 (ATCC CRM-CCL-155, Multiple Myeloma) (CD13−, CD20−, CD5− and CD4−); Karpas-299 (DSMZ ACC-31, Non-Hodgkin's Lymphoma) (CD20−, CD5+, and CD4+); MOLT-4 (ATCC CRL-1 582, Acute Lymphoblastic Leukemia, CD5+). In addition, the two Raji cell (ATCC CCL-86, Burkitt's Lymphoma) clones used in this study Raji-clone #10 (high CD5 expression) and Raji-clone18 (null CD5 expression), were provided by Dr. Juan M. Zapata (Instituto de Investigaciones Biomedicas “Alberto Sols”, CSIC-UAM, Madrid, Spain). Cells were maintained at 37° C., 5% CO 2 and 95% humidity in Dulbecco's Modified Eagle's Medium (DMEM) (for MCF and MDA-MB-231 cells), RPMI-1640 (for SK-BR-3, HCC-1954, NB-4, U937, Raji, RPMI-8226, Karpas-299, MOLT-4, Raji-clone #10 and Raji-clone #18 cells), RPMI-1640+1% ITS (for BT-474 cells) or McCOyS (for SK-OV-3 cells), all media supplemented with 10% Fetal Calf Serum (FCS) and 100 units/mL penicillin and streptomycin.
For adherent cells: A colorimetric assay using sulforhodamine B (SRB) was adapted for quantitative measurement of cell growth and cytotoxicity, as described in V. Vichai and K. Kirtikara (2006) Sulforhodamine B colorimetric assay for cytotoxicity screening. Nature Protocols, 1, 1112-1 116. Briefly, cells were seeded in 96-well microtiter plates and allowed to stand for 24 hours in drug-free medium before treatment with vehicle alone or the indicated compounds for 72 hours. For quantification, cells were washed twice with phosphate buffered saline (PBS), fixed for 15 min in 1% glutaraldehyde solution, rinsed twice with PBS, stained in 0.4% SRB-1% acetic acid solution for 30 min, rinsed several times with 1% acetic acid solution and air-dried. SRB was then extracted in 10 mM trizma base solution and the optical density measured at 490 nm in a microplate spectrophotometer. Cell survival was expressed as percentage of control, untreated cell survival. […]

[2] = tested on: Raji cell clones #10 (high CD5) and #18 (null CD5); experiment: In vitro cytotoxicity, the two Raji cell clones; type: cell-based, human; details: from mean IC50
Experimental: J. Immunol. Meth., 65, 55-63.
[…] dose-response (DR) curves for 72 hours were performed.

Karpas-299 cells = experiment: In vitro cytotoxicity, MTT assay, 72 h dose-response; type: cell-based, human; details: CD20−, CD5+, CD4+
Experimental: (§3) Briefly, MTT solution was added to the cell cultures at a final concentration of 0.5 mg/mL, and incubated for 1 to 4 hours at 37° C. until formazan crystals are formed. Culture medium is carefully removed from the cell cultures and formazan crystals resuspended in 100 μl DMSO. […] Cell survival was expressed as percentage of control, untreated cell survival.

SK-BR-3 cells = experiment: In vitro cytotoxicity, SRB assay, 72 h dose-response; type: cell-based; details: Homo sapiens, SK-BR-3, 72 h
HCC-1954 cells = experiment: as above; type: cell-based; details: Homo sapiens, HCC1954, 72 h
Description: (§2) Nature Protocols, 1, 1112-1 116.

BT-474 cells = experiment: as above; type: cell-based; details: Homo sapiens
Description: as §2

SK-OV-3 cells = experiment: as above; type: cell-based; details: Homo sapiens
Description: as §2

[3] = tested on: HCC-1954, SK-BR-3, MDA-MB-231 and MCF-7 cells; experiment: In vitro cytotoxicity, whole breast cancer cell panel
Description: as §1
For adherent cells: A colorimetric assay using sulforhodamine B (SRB) was adapted for quantitative measurement of cell growth and cytotoxicity, as described in V. Vichai and K. Kirtikara (2006) Sulforhodamine B colorimetric assay for cytotoxicity screening. Nature Protocols, 1, 1112-1 116. Briefly, cells were seeded in 96-well microtiter plates and allowed to stand for 24 hours in drug-free medium before treatment with vehicle alone or the indicated compounds for 72 hours. For quantification, cells were washed twice with phosphate buffered saline (PBS), fixed for 15 min in 1% glutaraldehyde solution, rinsed twice with PBS, stained in 0.4% SRB-1% acetic acid solution for 30 min, rinsed several times with 1% acetic acid solution and air-dried. SRB was then extracted in 10 mM trizma base solution and the optical density measured at 490 nm in a microplate spectrophotometer. Cell survival was expressed as percentage of control, untreated cell survival.
The IC50 value refers to the concentration of compound inducing a 50% of cell death as compared to the control cell survival.
Standard dose-response (DR) curves for 72 hours were performed.

Raji cells = experiment: In vitro cytotoxicity, MTT assay, 72 h dose-response; type: cell-based, human; details: CD13−, CD20+, CD5−, CD4−
Experimental: as §3

[4] = Homo sapiens, KARPAS-299, 72 h, read-out: IC50

COC1=CC[C@@H]([C@@H](C)/C=C(C)/C=C\C=C/C(=O)N[C@H](C(=O)N/C=C\C[C@H](C/C=C(\C)Cl)OC(=O)NCCCNC(=O)CCCCCN2C(=O)C=CC2=O)C(C)(C)C)OC1=O [Compound 1]
IC50 ([1]; read-out: IC50 values along the different cell lines tested (range)): 0.00089 µg/mL to 0.0064 µg/mL and 1.04 nM to 7.47 nM
IC50 ([1]; read-out: mean IC50 value across the whole cell panel): 0.00341 µg/mL and 3.98 nM
more active in CD5 overexpressing cells (clone #10) than in CD5 null cells (clone #18) [2]: around 1 log
IC50 (Karpas-299 cells; [4]): 0.0019 µg/mL and 2.22 nM
IC50 (SK-BR-3 cells; HER2+, 72 h, read-out: IC50): 0.00089 µg/mL and 1.04 nM
IC50 (HCC-1954 cells; HER2+, 72 h, read-out: IC50): 0.00096 µg/mL and 1.12 nM
IC50 (BT-474 cells; BT-474, 72 h): 0.0064 µg/mL and 7.47 nM
IC50 (SK-OV-3 cells; SK-OV-3, 72 h): 0.0057 µg/mL and 6.66 nM

COC1=CC[C@@H]([C@@H](C)/C=C(C)/C=C\C=C/C(=O)N[C@H](C(=O)N/C=C\C[C@H](C/C=C(\C)Cl)OC(=O)NCCCN)C(C)(C)C)OC1=O [Compound 4]
IC50 ([3]; Homo sapiens, read-out: mean IC50 value across the whole cell panel, four breast cell lines): 0.000197 µg/mL and 0.296 nM
mean IC50 value across the whole cell panel ([3]; four breast cell lines): 0.33 ng/mL
IC50 ([3]; read-out: mean IC50 value across the whole cell panel, four breast cell lines): 0.498 nM
IC50 ([1]; six cell lines, read-out: mean IC50 value across the whole cell panel): 0.000569 µg/mL and 0.857 nM
IC50 ([1]; six cell lines, two independent experiments, read-out: IC50 values along the different cell lines tested (range)): 0.089 to 1.7 ng/mL (≈ 0.134 to 2.56 nM)
IC50 (Raji cells): 0.00141 µg/mL
IC50 (Raji cells; read-out: IC50): 2.12 nM
IC50 (Raji cells; Homo sapiens, Raji, read-out: IC50): 0.00265 µg/mL and 4 nM
IC50 (Karpas-299 cells; read-out: IC50): 1.38 nM
IC50 (Karpas-299 cells; [4]): 0.00093 µg/mL and 1.4 nM
IC50 (BT-474 cells; BT-474, HER2+, 72 h, read-out: IC50): 0.00174 µg/mL and 2.62 nM
IC50 (SK-OV-3 cells; SK-OV-3, ovary, HER2+, 72 h, read-out: IC50): 0.00073 µg/mL and 1.1 nM

COC1=CC[C@@H]([C@@H](C)/C=C(C)/C=C\C=C/C(=O)N[C@H](C(=O)N/C=C\C[C@H](C/C=C(\C)Cl)OC(N)=O)C(C)(C)C)OC1=O [Compound 40]
IC50 ([3]; Homo sapiens, read-out: IC50 values along the different cell lines tested (range)): 0.049 to 0.173 ng/mL
IC50 ([3]; Homo sapiens, read-out: mean IC50 value across the whole cell panel): 0.000106 µg/mL and 0.175 nM
IC50 (Raji cells): 0.000115 µg/mL and 0.000285 µg/mL
IC50 (Raji cells; read-out: IC50): 0.19 nM and 0.47 nM
IC50 (Karpas-299 cells): 0.00013 µg/mL
IC50 (Karpas-299 cells; read-out: IC50): 0.142 nM and 0.215 nM
IC50 (SK-BR-3 cells): 4.9e-05 µg/mL and 0.081 nM
IC50 (HCC-1954 cells): 7.1e-05 µg/mL and 0.116 nM
